Key:
[1] = test system: mixed CSPGs (aggrecan, neurocan, phosphacan and versican); test: CSPG-ECM binding assay, mixed CSPGs
Description: (§1) To determine the interaction of insulin with CSPG-ECM components in vitro, flat-bottom 96-well plates were first coated with 10 μg/ml poly-L-lysine overnight, followed by a rinsing with water. A purified CSPGs mix containing neurocan, phosphacan, versican and aggrecan (CC117, Merck Millipore, MA), purified aggrecan (A1960, Merck Millipore, MA) or purified chondroitin 4-sulfate (59004, Selleck Chemicals, TX), were coated onto the 96-well plates at a concentration of 10 μg/ml for 4 h at RT, followed by a rinse with water. Insulin-FITC was incubated on plates containing ECM at concentrating ranging from 5 ng/ml-1 mg/ml for 2 h at RT and protected from light. Control wells contained either no ECM, bovine serum albumin (10 μg/ml) or poly-L-lysine alone. Wells were washed 3 times with water and imaged at 495 nm using a SPECTROstar Nano Microplate Reader (BMG Labtech, Germany). To digest CSPG-ECM or to negate CSPG-ECM negative charge. wells were incubated with either chABC (0.5 U/ml) or poly-1-arginine (10 μg/ml, P7762, Merck Millipore, MA) for 1 h at 37° C. after the ECM coating, washed 3 times with water and then incubated with insulin-FITC.

aggrecan = biological target: T1, aggrecan (Bos taurus, UniProt P13608); test: CSPG-ECM binding assay, aggrecan; settings: plates coated with aggrecan, 2-hours
T1 construct: purchased Merck Millipore A1960
Description: as §1

chondroitin 4-sulfate = test: CSPG-ECM binding assay, chondroitin 4-sulfate; settings: plates coated with chondroitin 4-sulfate (C4S), 2-hours
Description: as §1

T1 sequence (P13608 17-2364): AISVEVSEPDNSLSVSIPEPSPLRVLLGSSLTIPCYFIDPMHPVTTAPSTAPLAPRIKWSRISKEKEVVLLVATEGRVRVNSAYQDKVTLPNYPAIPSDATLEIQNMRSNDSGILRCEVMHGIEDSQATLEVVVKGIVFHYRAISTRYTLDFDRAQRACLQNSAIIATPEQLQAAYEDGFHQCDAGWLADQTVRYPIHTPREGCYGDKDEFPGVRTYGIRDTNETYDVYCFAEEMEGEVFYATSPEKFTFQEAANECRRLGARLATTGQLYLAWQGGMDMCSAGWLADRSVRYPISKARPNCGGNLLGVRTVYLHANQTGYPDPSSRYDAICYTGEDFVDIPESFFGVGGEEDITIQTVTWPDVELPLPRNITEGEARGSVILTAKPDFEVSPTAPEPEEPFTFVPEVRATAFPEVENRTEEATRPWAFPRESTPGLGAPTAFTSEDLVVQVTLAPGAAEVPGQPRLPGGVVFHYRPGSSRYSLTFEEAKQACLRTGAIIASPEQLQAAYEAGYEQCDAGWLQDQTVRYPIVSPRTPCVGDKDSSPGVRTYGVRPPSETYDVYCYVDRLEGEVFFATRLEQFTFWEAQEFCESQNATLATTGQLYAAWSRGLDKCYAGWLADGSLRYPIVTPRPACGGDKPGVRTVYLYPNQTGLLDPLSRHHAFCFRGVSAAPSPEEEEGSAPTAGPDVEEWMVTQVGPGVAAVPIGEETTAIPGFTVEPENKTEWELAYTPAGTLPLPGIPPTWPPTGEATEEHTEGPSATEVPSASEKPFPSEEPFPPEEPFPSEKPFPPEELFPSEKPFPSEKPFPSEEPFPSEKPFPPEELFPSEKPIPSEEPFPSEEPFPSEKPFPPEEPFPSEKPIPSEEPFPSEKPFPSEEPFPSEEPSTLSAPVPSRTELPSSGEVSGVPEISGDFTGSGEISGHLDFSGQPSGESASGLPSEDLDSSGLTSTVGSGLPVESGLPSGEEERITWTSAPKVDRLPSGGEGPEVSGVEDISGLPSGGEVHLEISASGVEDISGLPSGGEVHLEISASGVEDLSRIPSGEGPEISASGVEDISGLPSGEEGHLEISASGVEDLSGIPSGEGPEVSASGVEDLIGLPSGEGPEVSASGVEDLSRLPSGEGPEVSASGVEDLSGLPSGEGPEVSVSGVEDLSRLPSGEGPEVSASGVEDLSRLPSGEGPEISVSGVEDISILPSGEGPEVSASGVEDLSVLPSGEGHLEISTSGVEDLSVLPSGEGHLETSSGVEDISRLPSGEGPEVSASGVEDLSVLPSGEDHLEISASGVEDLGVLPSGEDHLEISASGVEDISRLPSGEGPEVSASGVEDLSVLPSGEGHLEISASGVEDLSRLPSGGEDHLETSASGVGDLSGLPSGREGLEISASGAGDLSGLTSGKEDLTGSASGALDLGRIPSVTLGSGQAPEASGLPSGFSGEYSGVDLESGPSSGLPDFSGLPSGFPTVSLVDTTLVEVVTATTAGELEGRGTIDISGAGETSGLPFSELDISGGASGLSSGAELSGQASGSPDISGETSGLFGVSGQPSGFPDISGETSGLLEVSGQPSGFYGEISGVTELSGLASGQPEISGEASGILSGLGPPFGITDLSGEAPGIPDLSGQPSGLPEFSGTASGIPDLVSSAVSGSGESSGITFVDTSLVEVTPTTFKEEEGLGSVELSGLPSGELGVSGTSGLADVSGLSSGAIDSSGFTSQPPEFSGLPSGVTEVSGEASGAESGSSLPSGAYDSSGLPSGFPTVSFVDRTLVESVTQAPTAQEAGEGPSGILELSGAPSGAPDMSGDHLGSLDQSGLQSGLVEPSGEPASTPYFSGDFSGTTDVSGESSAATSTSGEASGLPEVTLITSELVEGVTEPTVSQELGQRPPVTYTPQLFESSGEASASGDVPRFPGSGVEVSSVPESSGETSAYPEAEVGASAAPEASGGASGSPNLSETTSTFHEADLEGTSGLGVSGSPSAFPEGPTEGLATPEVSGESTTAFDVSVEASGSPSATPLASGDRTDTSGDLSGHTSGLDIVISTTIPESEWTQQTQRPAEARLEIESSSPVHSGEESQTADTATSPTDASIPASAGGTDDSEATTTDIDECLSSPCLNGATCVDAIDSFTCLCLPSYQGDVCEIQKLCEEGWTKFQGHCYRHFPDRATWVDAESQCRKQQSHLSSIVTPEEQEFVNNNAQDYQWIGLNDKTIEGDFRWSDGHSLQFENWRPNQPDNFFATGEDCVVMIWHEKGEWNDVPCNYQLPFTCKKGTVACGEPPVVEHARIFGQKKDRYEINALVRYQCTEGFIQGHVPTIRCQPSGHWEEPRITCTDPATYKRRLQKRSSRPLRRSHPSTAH

Row | insulin-ECM interactions ([1]; CSPG mix, in the presence of poly-arginine) | binding of insulin-FITC (aggrecan) | binding of insulin-FITC ([1]; plates coated with mixed CSPGs, 2-hours) | binding of insulin-FITC (chondroitin 4-sulfate) | Substance
1 | significantly reduced |  |  |  | poly-arginine
2 |  | specific dose-dependent binding | specific dose-dependent binding | specific dose-dependent binding | insulin-FITC: fluorescein isothiocyanate tagged insulin

Reference: patent publication US20260191933A1, “PHARMACEUTICAL COMBINATIONS AND USES THEREOF” (The University of Melbourne, priority 2022, published 2026)
